In brackets after ≈: the same amount, converted by molar mass.
How the values were obtained:
[1] = test system: Listeria monocytogenes (ATCC 35152); assay: Disc diffusion assay; assay type: cell-based; conditions: for Inhibition zones of isolated acetogenins (in words): isolated molecules at 15 μg disc^−1, 37° C., 24 h; for Potency relative to Mirenat® in disc diffusion: 15 μg disc^−1 vs Mirenat® at 15 μg disc^−1 LAE
Protocol: Listeria monocytogenes (ATCC 35152) was acquired from the American Type Culture Collection (Manassas, Va., USA). For experimentation, frozen stocks were first activated in Brain Heart Infusion (BHI) broth (Becton, Dickinson and Co., Franklin Lakes, N.J., USA) for 16-18 h at 37° C. A sub-culture was prepared under the same growth conditions to 3⁄4 log phase (6-7 h). At this stage, cells were adjusted with BHI to an initial optical density (OD) at 600 nm of 0.15, which corresponded to 8×10^6 CFU mL^-1 and served as the inoculum for the following antimicrobial assays. Aliquots (100 μL) of the cell suspension described above were evenly spread with a sterile plastic rod on the surface of agar plates. Sterile filter paper disks (Whatman No. 1, 6 mm) were impregnated with aliquots (5 μL) of the antimicrobial solution (EAE, Avosafe® and isolated acetogenins) freshly prepared at 3000 ppm in 96% food grade ethanol to delivered 15 μg disc^-1 of active compounds. All solutions were sonicated for 5 min (Branson 2510, Branson Ultrasonics, Danbury, Conn., USA) and vortexed for 30 s before dispensing the corresponding volumes. The disks were air-dried for approximately 1 h in a biological safety cabinet before placed into the inoculated plate. Antimicrobials were tested in triplicate, one disk per plate to account for plate variability. Vehicle and positive controls were also incorporated into each plate and contemplated 5 μl of 96% ethanol and […]® at 3000 ppm LAE in sterile deionized water. Each plate contained at most six disks evenly distributed. Plates were incubated for 24 h at 37° C. After, diameters of inhibition zones were measured to the nearest millimeter.

[2] = test system: Listeria monocytogenes (ATCC 35152); assay: Minimum inhibitory concentration (MIC) and minimum bactericidal concentration (MBC), broth dilution; assay type: cell-based; conditions: 37° C.; for MBC/MIC ratio: ≤4 bactericidal, >4 bacteriostatic; for MBC / MIC: Listeria monocytogenes, ATCC35152, 24 h
Protocol: Listeria monocytogenes (ATCC 35152) was acquired from the American Type Culture Collection (Manassas, Va., USA). For experimentation, frozen stocks were first activated in Brain Heart Infusion (BHI) broth (Becton, Dickinson and Co., Franklin Lakes, N.J., USA) for 16-18 h at 37° C. A sub-culture was prepared under the same growth conditions to ¾ log phase (6-7 h). At this stage, cells were adjusted with BHI to an initial optical density (OD) at 600 nm of 0.15, which corresponded to 8×10^6 CFU mL^−1 and served as the inoculum for the following antimicrobial assays.
Stock solutions (25000-5000 ppm) of EAE, Avosafe® and isolated molecules were prepared in ≥99.5% food-grade propylene glycol (PG) (Sigma Aldrich, St. Louis, Mo., USA) and stored in brown vials at −80° C. Working solutions in culture media were prepared from room temperature acclimatized stock solutions that were sonicated (5 min) and vortexed (30 s) as described above. Culture medium was adjusted to 4% w/v PG to account for the effect of the vehicle in all concentrations tested and sets of experiments. Prior tests were conducted to confirm that 4% PG had no effect on growth. Serial 2-fold dilutions of samples, in a range of concentrations from 125 to 0.98 ppm, were prepared in sterile 96-well clear polystyrene microplates (Cat. No. 3370, Corning, Corning, N.Y., USA) or disposable test tubes (VWR, Radnor, Pa., USA) to a final volume of 300 μL or 1 mL, respectively. The experimentation scale was determined by the amount of test product available. Each well or tube was inoculated with 10% v/v liquid phase of the cell suspension (OD600 nm 0.15) as previously described. A growth control (no antimicrobial added), an aseptic control (uninoculated), and a positive control (Mirenat®) were also examined. After 24 h at 37° C., the MIC was defined as the lowest concentration at which no visual growth was assessed by turbidity (Levison, M. E., “Pharmacodynamics of Antimicrobial Drugs,” Infect. Dis. Clin. North. Am. 18(3):451-65 (2004), which is hereby incorporated by reference in its entirety). […] Then, the pellet was resuspended in antimicrobial-free medium and incubated for 24 h at 37° C. The MBC was defined as the lowest concentration showing no growth (Levison, M. E., “Pharmacodynamics of Antimicrobial Drugs,” Infect. Dis. Clin. North. Am. 18(3):451-65 (2004), which is hereby incorporated by reference in its entirety). All tests were independently replicated (n=3) and performed with technical triplicates.

[3] = Effect of thermal processing and storage on acetogenins concentration in sausages; assay type: physicochemical; conditions: sausages with 10,000 ppm Avosafe®, cooking and pasteurization
Text: Effect of thermal processing and storage on acetogenins concentration. Acetogenins in sausages (Treatment A: un-cooked, day 0 and 90) were extracted and quantified as reported by Salinas-Salazar et al, “Inhibitory Activity of Avocado Seed Fatty Acid Derivatives (Acetogenins) Against Listeria Monocytogenes” J Food Sci 82: 134-44 (2016), which is hereby incorporated by reference in its entirety, with some modifications. Three grams (3 g) of sample were homogenized with acetone (1:5, w/v) using an Ultra-Turrax T25 homogenizer (IKA Works, Willmington, N.C., USA.) at 11000 rpm for 3 min, sonicated for 5 min, and centrifuged at 3600 rpm for 6 min (5° C.). Supernatants were collected and the precipitated material was extracted again two times, as mentioned above. After, supernatants were mixed and the solvent was evaporated at 35° C. using a rotary evaporator (Büchi R-210, Büchi Labortechnik AG, Switzerland) under high vacuum (22 in Hg). Residue was partitioned in 10 mL hexane:methanol (1:1). After 30 s of vortex, phases were separated by centrifugation (4000 rpm, 10 min) and the lower phase (methanol) was recovered and washed two more times with hexane, taken to dryness under nitrogen gas, resuspended in 1 mL isopropanol and passed through a 0.45 μm PTFE filter prior to HPLC injection. Agilent HPLC systems (Santa Clara, Calif., USA) 1260 Infinity series coupled to a G4212B photodiode array detector (PDA) and an evaporative light scattering detector G4218A was used. The PDA detector was set at 220 and 208 nm (Rodríguez-López, “A Targeted Metabolomics Approach to Characterize Acetogenin Profiles in Avocado Fruit (Persea americana Mill.)” RSC Adv 5: 106019-29 (2015), which is hereby incorporated by reference in its entirety).

[4] = lactating mice; cited from earlier work
[5] = dose of 100 mg kg^−1 of body weight; cited from earlier work
C. sporogenes = conditions: cited from earlier work

C#CCC/C=C/CCCCCCC[C@H](O)CC(O)COC(C)=O (stereo in doubt) [AcO-avocadenyne, 1-acetoxy-2,4-dihydroxy-heptadec-12-en-16-yne]
Antimicrobial activity relative to AcO-avocadene ([1]; 15 μg disc^−1, FIG. 4): 4 times
MBC/MIC ratio [2]: 2
MBC [2]: 31.2 µg/mL (≈ 96.2 µM)
MIC [2]: 15.6 µg/mL (≈ 48.1 µM)

C=CCCCCCCCCCCC[C@H](O)C[C@H](O)COC(C)=O [AcO-avocadene, (2S,4S)-1-acetoxy-2,4-dihydroxy-n-heptadeca-16-ene]
Inhibition zones of isolated acetogenins (in words) [1]: least potent
Processing losses compared to unprocessed control (in words) [3]: no statistically significant

C=CCCCCCCCCCC=CC(O)CC(O)COC(C)=O (stereo not drawn) [AcO-avocadiene A, 1-Acetoxy-2,4-dihydroxy-heptadeca-5,16-diene]
Inhibition zones of isolated acetogenins (in words) [1]: did not produce inhibition zones
Processing losses compared to unprocessed control (in words) [3]: no statistically significant

C#CCCCCCCCCCCCC(O)CC(O)COC(C)=O (stereo not drawn) [AcO-avocadyne, 1-acetoxy-2,4-dihydroxy-heptadec-16-yne]
Inhibition zones of isolated acetogenins (in words) [1]: did not produce inhibition zones

CCCCC/C=C\C/C=C\CCCCC/C=C/C(=O)C[C@@H](O)COC(C)=O [Persenone A, (2R,5E,12Z,15Z)-1-acetoxy-2-hydroxy-4-oxoheneicosa-5,12,15-triene]
Potency relative to Mirenat® in disc diffusion [1]: around 3 fold
Inhibition zones of isolated acetogenins (in words) [1]: highest inhibition zones
MBC/MIC ratio [2]: 2
MBC [2]: 15.6 µg/mL (≈ 41.2 µM)
MIC [2]: 7.8 µg/mL (≈ 20.6 µM)
Processing losses compared to unprocessed control (in words) [3]: no statistically significant

CCCCCCCCCCCCC/C=C/C(=O)C[C@@H](O)COC(C)=O [Persenone B, (5E)-1-acetoxy-2-hydroxy-4-oxononadeca-5-ene]
Processing losses compared to unprocessed control (in words) [3]: no statistically significant

CC/C=C/CCCCCCCCC/C=C/C(=O)C[C@@H](O)COC(C)=O [Persenone C, (2R,5E,16E)-1-acetoxy-2-hydroxy-4-oxononadeca-5,16-diene]
Potency relative to Mirenat® in disc diffusion [1]: around 3 fold
Inhibition zones of isolated acetogenins (in words) [1]: highest inhibition zones

CCCCC/C=C\C/C=C\CCCCCCCC(=O)C[C@@H](O)COC(C)=O [Persin, (2R,12Z,15Z)-1-acetoxy-2-hydroxy-4-oxoheneicosa-12,15-diene]
Toxic acute doses [4]: 60-100 mg kg^−1 body weight
Effect in liver injury (in words) [5]: protective effect
Antimicrobial activity against C. sporogenes (in words) (C. sporogenes): minimal
